Data published in patent US12018258B2, “Mobile-CRISPRi plasmids and related methods” (CZ Biohub SF, LLC, priority 2019, dated 2024).

What was measured:
[1] = test system: Klebsiella pneumoniae; settings: MIC assay, n=3
Experimental: (§1) MIC assays were performed using the broth microdilution method as previously described in Wiegand et al. Agar and broth dilution methods to determine the minimal inhibitory concentration (MIC) of antimicrobial substances. Nat. Protoc. 3, 163 (2008) (28), except that 0.1% arabinose (for P. aeruginosa) or 100 μM IPTG (for E. aerogenes) was added to induce dcas9 expression, and K. pneumoniae cultures were shaken to reduce clumping. Three biological replicates were grown for MIC assays. Growth curves shown in FIG. 3 were set up in exactly the same manner as the MIC assays, except that cultures were grown with agitation in a plate reader (BioTek) for ˜16 hrs. P-values for comparing MICs between control sgRNA and folA sgRNA strains were obtained using an unpaired two-tailed t-test with Welch's correction to account for unequal variances between samples and calculated using GraphPad Prism 7.0e.

[2] = test system: Enterobacter aerogenes; settings: MIC assay, n=3
Experimental: as §1

[3] = test system: pathogenic Gammaproteobacteria associated with antibiotic resistance
Experimental: MIC assays were performed using the broth microdilution method as previously described in Wiegand et al. Agar and broth dilution methods to determine the minimal inhibitory concentration (MIC) of antimicrobial substances. […] 3, 163 (2008) (28), except that 0.1% arabinose (for P. aeruginosa) or 100 μM IPTG (for E. aerogenes) was added to induce dcas9 expression, and K. pneumoniae cultures were shaken to reduce clumping. Three biological replicates were grown for MIC assays. […] P-values for comparing MICs between control sgRNA and folA sgRNA strains were obtained using an unpaired two-tailed t-test with Welch's correction to account for unequal variances between samples and calculated using GraphPad Prism 7.0e.

COc1cc(Cc2cnc(N)nc2N)cc(OC)c1OC [trimethoprim]
sensitivity to trimethoprim after CRISPRi knockdown of folA [1]: increased sensitivity | sensitivity to trimethoprim after CRISPRi knockdown of folA [2]: increased sensitivity | growth of the folA knockdown strains ([3]; trimethoprim concentrations below the MIC for the wild type bacteria, data not shown): completely inhibited growth | shift of the minimal inhibitory concentration (MIC) ([3]; {}): 2-4 fold
